According to patent US20230278972A1, “SUBSTITUTED HALOALKYL SULFONANILIDE HERBICIDES” (FMC Corporation, priority 2020, published 2023):

What was measured:
Format in all cases: in vivo
[1] = system: barnyardgrass (Echinochloa crus-galli); experiment: Test A preemergence, barnyardgrass; conditions: Preemergence; for Plant response rating, Barnyardgrass: 0 to 100 scale (0 no effect, 100 complete control); for Barnyardgrass plant response rating: 125 g ai/ha, visual injury on 0 to 100 scale (0 no effect, 100 complete control), approximately 10 days
Method in brief: (§1)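 Test chemicals, formulated in a non-phytotoxic solvent mixture with surfactant, were sprayed postemergence on plants 2 to 10 cm tall at the one- to two-leaf stage. Preemergence treatment was a directed soil spray onto freshly seeded pots. Both used a loam soil and sand blend.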

[2] = system: kochia (Bassia scoparia); experiment: Test A preemergence, kochia; conditions: Preemergence; for Plant response rating, Kochia: 0 to 100 scale (0 no effect, 100 complete control); for Kochia plant response rating: 125 g ai/ha, visual injury on 0 to 100 scale (0 no effect, 100 complete control), approximately 10 days
Method in brief: as §1

[3] = system: ragweed (common ragweed, Ambrosia artemisiifolia); experiment: Test A preemergence, ragweed; conditions: Preemergence; for Plant response rating, Ragweed: 0 to 100 scale (0 no effect, 100 complete control); for Ragweed plant response rating: 125 g ai/ha, visual injury on 0 to 100 scale (0 no effect, 100 complete control), approximately 10 days
Method in brief: as §1

[4] = system: Ryegrass, Italian (Italian ryegrass, Lolium multiflorum); experiment: Test A preemergence, Ryegrass, Italian; conditions: Preemergence; for Plant response rating, Ryegrass, Italian: 0 to 100 scale (0 no effect, 100 complete control); for Ryegrass, Italian plant response rating: 125 g ai/ha, visual injury on 0 to 100 scale (0 no effect, 100 complete control), approximately 10 days
Method in brief: as §1

[5] = system: Foxtail, Giant (giant foxtail, Setaria faberi); experiment: Test A preemergence, Foxtail, Giant; conditions: Preemergence; for Plant response rating, Foxtail, Giant: 0 to 100 scale (0 no effect, 100 complete control); for Foxtail, Giant plant response rating: 125 g ai/ha, visual injury on 0 to 100 scale (0 no effect, 100 complete control), approximately 10 days
Method in brief: as §1

[6] = system: pigweed (Amaranthus retroflexus); experiment: Test A preemergence, pigweed; conditions: for Plant response rating, Pigweed: 0 to 100 scale (0 no effect, 100 complete control); for Pigweed plant response rating: 125 g ai/ha, visual injury on 0 to 100 scale (0 no effect, 100 complete control), approximately 10 days
Method in brief: (§2)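 Postemergence ratings come from foliar sprays onto one- to two-leaf plants of 2 to 10 cm grown in loam/sand; preemergence ratings come from a directed spray onto the soil of newly seeded pots. Formulation was a surfactant-containing non-phytotoxic solvent blend.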

[7] = system: barnyardgrass (Echinochloa crus-galli); experiment: Test A postemergence, barnyardgrass; conditions: Postemergence, 0 to 100 scale (0 no effect, 100 complete control); for Barnyardgrass plant response rating: 500 g ai/ha, visual injury vs untreated controls after approx. 10 days
Method in brief: as §2

[8] = system: kochia (Bassia scoparia); experiment: Test A postemergence, kochia; conditions: Postemergence, 0 to 100 scale (0 no effect, 100 complete control); for Kochia plant response rating: 500 g ai/ha, visual injury vs untreated controls after approx. 10 days
Method in brief: as §1

[9] = system: ragweed (common ragweed, Ambrosia artemisiifolia); experiment: Test A postemergence, ragweed; conditions: Postemergence, 0 to 100 scale (0 no effect, 100 complete control); for Ragweed plant response rating: 500 g ai/ha, visual injury vs untreated controls after approx. 10 days
Method in brief: as §1

[10] = system: Ryegrass, Italian (Italian ryegrass, Lolium multiflorum); experiment: Test A postemergence, Ryegrass, Italian; conditions: Postemergence, 0 to 100 scale (0 no effect, 100 complete control); for Ryegrass, Italian plant response rating: 500 g ai/ha, visual injury vs untreated controls after approx. 10 days
Method in brief: as §1

[11] = system: Foxtail, Giant (giant foxtail, Setaria faberi); experiment: Test A postemergence, Foxtail, Giant; conditions: Postemergence, 0 to 100 scale (0 no effect, 100 complete control); for Foxtail, Giant plant response rating: 500 g ai/ha, visual injury vs untreated controls after approx. 10 days
Method in brief: as §1

[12] = system: pigweed (Amaranthus retroflexus); experiment: Test A postemergence, pigweed; conditions: Postemergence, 0 to 100 scale (0 no effect, 100 complete control); for Pigweed plant response rating: 500 g ai/ha, visual injury vs untreated controls after approx. 10 days
Method in brief: as §1

[13] = system: wheat (Triticum aestivum); experiment: Test A postemergence, wheat; conditions: Postemergence, 0 to 100 scale (0 no effect, 100 complete control); for Wheat plant response rating: 500 g ai/ha, visual injury vs untreated controls after approx. 10 days
Method in brief: as §2

[14] = system: corn (Zea mays); experiment: Test A postemergence, corn; conditions: Postemergence, 0 to 100 scale (0 no effect, 100 complete control); for Corn plant response rating: 500 g ai/ha, visual injury vs untreated controls after approx. 10 days
Method in brief: as §1

[15] = system: blackgrass (Alopecurus myosuroides); experiment: Test A postemergence, blackgrass; conditions: Postemergence, 0 to 100 scale (0 no effect, 100 complete control); for Blackgrass plant response rating: 500 g ai/ha, visual injury vs untreated controls after approx. 10 days
Method in brief: as §1

[16] = system: galium (catchweed bedstraw, Galium aparine); experiment: Test A postemergence, galium; conditions: Postemergence, 0 to 100 scale (0 no effect, 100 complete control); for Galium plant response rating: 500 g ai/ha, visual injury vs untreated controls after approx. 10 days
Method in brief: as §2

[17] = 1000 g ai/ha, visual injury, approx. 10 days
[18] = 125 g ai/ha, visual injury approx. 10 days

| SMILES | Barnyardgrass plant response rating [1] | Plant response rating, Barnyardgrass ([1]; 500 g ai/ha) | Kochia plant response rating [2] | Plant response rating, Kochia ([2]; 500 g ai/ha) | Ragweed plant response rating [3] | Plant response rating, Ragweed ([3]; 500 g ai/ha) | Ryegrass, Italian plant response rating [4] | Plant response rating, Ryegrass, Italian ([4]; 500 g ai/ha) | Foxtail, Giant plant response rating [5] | Plant response rating, Foxtail, Giant ([5]; 500 g ai/ha) | Pigweed plant response rating [6] | Plant response rating, Pigweed ([6]; 500 g ai/ha) | Plant response rating, Barnyardgrass [7, 18] | Barnyardgrass plant response rating [7] | Plant response rating, Kochia [8, 18] | Kochia plant response rating [8] | Plant response rating, Ragweed [9, 18] | Ragweed plant response rating [9] | Plant response rating, Ryegrass, Italian [10, 18] | Ryegrass, Italian plant response rating [10] | other results |
| --- | --- | --- | --- | --- | --- | --- | --- | --- | --- | --- | --- | --- | --- | --- | --- | --- | --- | --- | --- | --- | --- |
| Cc1ccc(C(=O)N2CCCCC2)cc1NS(=O)(=O)C(F)(F)F [Compound 259] |  |  |  |  |  |  |  |  |  |  |  |  |  |  |  |  |  |  |  |  | Plant response rating, Barnyardgrass ([1]; 1000 g ai/ha): 90; Plant response rating, Kochia ([2]; 1000 g ai/ha): 40; Plant response rating, Ragweed ([3]; 1000 g ai/ha): 70; Plant response rating, Ryegrass, Italian ([4]; 1000 g ai/ha): 80; Plant response rating, Foxtail, Giant ([5]; 1000 g ai/ha): 90; Plant response rating, Pigweed ([6]; 1000 g ai/ha): 80; Plant response rating, Barnyardgrass [7, 17]: 0; Plant response rating, Kochia [8, 17]: 40; Plant response rating, Ragweed [9, 17]: 10; Plant response rating, Ryegrass, Italian [10, 17]: 10; Plant response rating, Foxtail, Giant [11, 17]: 0; Plant response rating, Pigweed [12, 17]: 40; Plant response rating, Wheat [13, 17]: 0; Plant response rating, Corn [14, 17]: 10; Plant response rating, Blackgrass [15, 17]: 50; Plant response rating, Galium [16, 17]: 60 |
| CC(=O)N(c1cc(-c2ccnn(C)c2=O)c(C)cc1C)S(=O)(=O)C(F)(F)F [Compound 56] | 100 | 100 | 40 | 100 | 70 | 90 | 100 | 100 | 0 | 20 | 40 | 90 | 90 | 90 | 50 | 60 | 60 | 90 | 0 | 80 | Plant response rating, Foxtail, Giant [11, 18]: 90; Foxtail, Giant plant response rating [11]: 90; Plant response rating, Pigweed [12, 18]: 40; Pigweed plant response rating [12]: 40; Plant response rating, Wheat [13, 18]: 50; Wheat plant response rating [13]: 70; Plant response rating, Corn [14, 18]: 10; Corn plant response rating [14]: 80; Plant response rating, Blackgrass [15, 18]: 50; Blackgrass plant response rating [15]: 50; Plant response rating, Galium [16, 18]: 90; Galium plant response rating [16]: 90 |
| Cc1cc(C)c(N(S(=O)(=O)C(F)(F)F)S(=O)(=O)C(F)(F)F)cc1-c1cc(Br)nn(C)c1=O [Compound 67] | 70 | 100 | 0 | 70 | 0 | 60 | 80 | 90 | 90 | 100 | 50 | 80 | 0 | 40 | 10 | 40 | 0 | 10 | 0 | 60 | Plant response rating, Foxtail, Giant [11, 18]: 10; Foxtail, Giant plant response rating [11]: 70; Plant response rating, Pigweed [12, 18]: 30; Pigweed plant response rating [12]: 80; Plant response rating, Wheat [13, 18]: 30; Wheat plant response rating [13]: 60; Plant response rating, Corn [14, 18]: 0; Corn plant response rating [14]: 0; Plant response rating, Blackgrass [15, 18]: 0; Blackgrass plant response rating [15]: 60; Plant response rating, Galium [16, 18]: 50; Galium plant response rating [16]: 60 |
